Reference: ChEMBL document CHEMBL4340540, “3-Substituted Quinolines as RORγt Inverse Agonists” (Bioorg Med Chem Lett, 2019)
Values after ≈ are worked out from the molar mass of the structure shown.

Assays:
[1] = Equilibrium aqueous solubility of the compound at pH 2; assay type: physicochemical
[2] = Equilibrium aqueous solubility of the compound at pH 7; assay type: physicochemical
[3] = Clearance in rat at 1 mg/kg, iv; assay type: ADME, organism-based; conditions: in vivo
[4] = Volume of distribution at steady state in rat at 1 mg/kg, iv; assay type: ADME, organism-based; conditions: in vivo, read-out: Vdss
[5] = Half life in rat at 1 mg/kg, iv; assay type: ADME, organism-based; conditions: in vivo
[6] = Cmax in rat at 5 mg/kg, po; assay type: ADME, organism-based; parameters: dose 5 mg/kg, route oral; conditions: in vivo
[7] = Half life in rat at 5 mg/kg, po; assay type: ADME, organism-based; conditions: in vivo
[8] = Oral bioavailability in rat at 5 mg/kg; conditions: in vivo
[9] = biological target: T1, Nuclear receptor ROR-gamma (Homo sapiens) (UniProt P51449); experiment: Inverse agonist activity at GAL4-DNA binding domain-fused human full length RORgammat expressed in pGL4.31 transfected HEK293T cells assessed as inhibition of RORGgammat driven transcriptional activity at 2 uM after 24 hrs by luciferase reporter gene assay relative to control; assay type: cell-based
T1 sequence (whole entry): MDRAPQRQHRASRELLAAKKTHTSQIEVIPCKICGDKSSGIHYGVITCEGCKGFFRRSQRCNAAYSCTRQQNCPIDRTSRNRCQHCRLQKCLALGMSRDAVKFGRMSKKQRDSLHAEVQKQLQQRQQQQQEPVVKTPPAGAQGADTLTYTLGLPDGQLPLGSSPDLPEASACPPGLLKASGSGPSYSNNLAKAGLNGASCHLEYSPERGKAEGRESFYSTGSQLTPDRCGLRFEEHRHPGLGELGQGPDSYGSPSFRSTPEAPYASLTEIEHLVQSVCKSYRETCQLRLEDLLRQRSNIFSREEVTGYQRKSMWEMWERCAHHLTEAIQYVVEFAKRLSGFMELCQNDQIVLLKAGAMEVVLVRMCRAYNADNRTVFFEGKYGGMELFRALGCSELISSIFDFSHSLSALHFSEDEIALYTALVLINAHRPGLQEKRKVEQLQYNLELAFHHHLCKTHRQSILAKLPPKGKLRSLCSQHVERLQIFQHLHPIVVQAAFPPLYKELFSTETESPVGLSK

[10] = biological target: T2, Nuclear receptor ROR-gamma (Homo sapiens, UniProt P51449)
T2 sequence (P51449 whole entry): T1 sequence (whole entry)

in vitro [11] = conditions: human, liver microsomes
in vitro [12] = conditions: rat, liver microsomes
[13] = biological target: T1, Nuclear receptor ROR-gamma (Homo sapiens); experiment: Inverse agonist activity at GAL4-DNA binding domain-fused human RORgammat LBD expressed in pGL4.31 transfected HEK293T cells assessed as inhibition of RORGgammat driven transcriptional activity at 1 uM after 24 hrs by dual-luciferase reporter gene assay relative to control; assay type: cell-based
[14] = biological target: T1, Nuclear receptor ROR-gamma (Homo sapiens); experiment: Inverse agonist activity at GAL4-DNA binding domain-fused human full length RORgammat expressed in pGL4.31 transfected HEK293T cells assessed as inhibition of RORGgammat driven transcriptional activity at 3 uM after 24 hrs by dual-luciferase reporter gene assay relative to control; assay type: cell-based

solubility thermodynamic [1] | solubility thermodynamic [2] | SMILES | also measured
> 400 µM | 8 µM (≈ 4.38 µg/mL) | COc1nc2ccc(C(O)(c3ccc(C)nc3C)c3cnnn3C)cc2c(Cl)c1CN1CC(C(F)(F)F)C1 (stereo not given) | –
> 400 µM | < 4 µM | COc1nc2ccc(C(O)(c3ccc(C)nc3C)c3cnnn3C)cc2c(Cl)c1CN1CCC(F)(F)CC1 (stereo not given) | –
> 400 µM | < 4 µM | COc1nc2ccc(C(O)(c3ccc(C)nc3C)c3cnnn3C)cc2c(Cl)c1C (stereo not given) | –
> 400 µM | < 1 µM | COc1nc2ccc(C(O)(c3ccc(C)nc3C)c3cnnn3C)cc2c(Cl)c1CC1CC1 (stereo not given) | –
395 µM (≈ 194 µg/mL) | < 4 µM | COc1nc2ccc(C(O)(c3ccc(C)nc3C)c3cnnn3C)cc2c(Cl)c1CC(F)(F)F (stereo not given) | –
371 µM (≈ 191 µg/mL) | < 4 µM | COc1nc2ccc(C(O)(c3ccc(C)nc3C)c3cnnn3C)cc2c(Cl)c1OCC1CC1(F)F (stereo not given) | –
> 400 µM | 100 µM (≈ 52.5 µg/mL) | COc1nc2ccc(C(O)(c3ccc(C)nc3C)c3cnnn3C)cc2c(Cl)c1CN1CCC(F)CC1 (stereo not given) | –
> 400 µM | < 1 µM | COc1nc2ccc(C(O)(c3ccc(C)nc3C)c3cnnn3C)cc2c(Cl)c1OC(C)C (stereo not given) | –
> 400 µM | < 1 µM | COc1nc2ccc(C(O)(c3ccc(C)nc3C)c3cnnn3C)cc2c(Cl)c1CC(C)C (stereo not given) | –
> 400 µM | < 1 µM | COc1nc2ccc(C(O)(c3ccc(C)nc3C)c3cnnn3C)cc2c(Cl)c1CC1CCC(F)(F)CC1 (stereo not given) | –
> 400 µM | < 1 µM | COc1nc2ccc(C(O)(c3ccc(C)nc3C)c3cnnn3C)cc2c(Cl)c1OCC1CC1 (stereo not given) | –

Second part, the molecule before the results:

SMILES | solubility thermodynamic [1] | solubility thermodynamic [2] | also measured
COc1nc2ccc(C(O)(c3ccc(C)nc3C)c3cnnn3C)cc2c(Cl)c1OCc1ncccn1 (stereo not given) | > 400 µM | 336 µM (≈ 174 µg/mL) | –
COc1nc2ccc(C(O)(c3ccc(C)nc3C)c3cnnn3C)cc2c(Cl)c1CN1CCC(n2cccn2)CC1 (stereo not given) | > 400 µM | 30 µM (≈ 17.2 µg/mL) | –
COc1nc2ccc([C@@](O)(c3ccc(C(F)(F)F)nc3)c3cncn3C)cc2c(Cl)c1CN1CCC(C(F)(F)F)CC1 | > 400 µM | < 1 µM | clearance [3]: 0.474 L/h/kg; Vd [4]: 5.7 L/kg; half-life [5]: 9.1 h; Cmax [6]: 0.553 µg/mL; half-life [7]: 8.5 h; bioavailability [8]: 77%
COc1nc2ccc(C(O)(c3ccc(C)nc3C)c3cnnn3C)cc2c(Cl)c1OC1CCOCC1 (stereo not given) | > 400 µM | 41 µM (≈ 20.9 µg/mL) | –
COc1nc2ccc(C(O)(c3cnnn3C)c3cnc(C)n3C)cc2c(Cl)c1CN1CCC(C(F)(F)F)CC1 (stereo not given) | > 400 µM | 31 µM (≈ 17.5 µg/mL) | –
COc1nc2ccc(C(O)(c3ccnc(C(F)(F)F)c3)c3cnnn3C)cc2c(Cl)c1CN1CCC(C(F)(F)F)CC1 (stereo not given) | > 400 µM | < 4 µM | inhibition [9]: 100%
COc1nc2ccc(C(O)(c3cc(C)nc(C)c3)c3cnnn3C)cc2c(Cl)c1CN1CCC(C(F)(F)F)CC1 (stereo not given) | > 400 µM | < 1 µM | –
COc1nc2ccc(C(O)(c3ccc(C)nc3C)c3cnnn3C)cc2c(Cl)c1CC1CCS(=O)(=O)CC1 (stereo not given) | 387 µM (≈ 215 µg/mL) | 13 µM (≈ 7.23 µg/mL) | IC50 [10]: 0.28 µM; hepatic extraction ratio (in vitro [11]): 0.9; hepatic extraction ratio (in vitro [12]): 0.7
COc1nc2ccc(C(O)(c3ccc(C(F)(F)F)nc3)C3CN(C(C)=O)C3)cc2c(Cl)c1CN1CCC(C(F)(F)F)CC1 (stereo not given) | > 400 µM | < 4 µM | inhibition [9]: 94%
COc1nc2ccc(C(O)(c3ccc(C)nc3C)c3cnnn3C)cc2c(Cl)c1OCc1nccs1 (stereo not given) | > 400 µM | < 4 µM | –
COc1nc2ccc(C(O)(c3ccc(C)nc3C)c3cnnn3C)cc2c(Cl)c1Cc1ccc(C(F)(F)F)cc1 (stereo not given) | 202 µM (≈ 115 µg/mL) | < 1 µM | inhibition [13]: 100%
COc1nc2ccc(C(O)(c3ccnc(C(F)(F)F)c3)c3cncn3C)cc2c(Cl)c1CN1CCC(C(F)(F)F)CC1 (stereo not given) | > 400 µM | < 1 µM | –
COc1nc2ccc(C(O)(c3ccc(Cl)cc3)c3cncn3C)cc2c(Cl)c1Cc1ccc(-n2cccn2)cc1 (stereo not given) | < 1 µM | < 1 µM | clearance [3]: 0.69 L/h/kg; Vd [4]: 4.3 L/kg; half-life [5]: 5.6 h; Cmax [6]: 0.262 µg/mL; half-life [7]: 5.6 h; bioavailability [8]: 42%
COc1nc2ccc(C(O)(c3ccc(C)nc3C)c3cnnn3C)cc2c(Cl)c1CN1CCC(C(F)(F)F)CC1 (stereo not given) | > 400 µM | < 1 µM | –
COc1nc2ccc(C(O)(c3cnc(C)n3C)C3CN(C(C)=O)C3)cc2c(Cl)c1CN1CCC(C(F)(F)F)CC1 (stereo not given) | > 400 µM | > 400 µM | –
COc1nc2ccc(C(O)(c3ccc(C)nc3C)c3cnnn3C)cc2c(Cl)c1C(=O)N1CCC(C(F)(F)F)CC1 (stereo not given) | > 400 µM | 60 µM (≈ 35.3 µg/mL) | inhibition [14]: 66%; IC50 [10]: 0.386 µM; hepatic extraction ratio (in vitro [11]): 0.8; hepatic extraction ratio (in vitro [12]): 0.8
COc1nc2ccc(C(O)(c3cnc(C)n3C)c3cnc(C)n3C)cc2c(Cl)c1CN1CCC(C(F)(F)F)CC1 | > 400 µM | 4 to 7 µM (≈ 2.31 to 4.04 µg/mL) | –
COc1nc2ccc(C(O)(c3ccc(C)nc3C)c3cnnn3C)cc2c(Cl)c1C1CCCC1 (stereo not given) | 273 µM (≈ 130 µg/mL) | < 4 µM | –
COc1nc2ccc([C@](O)(c3ccnc(C(F)(F)F)c3)c3cnc(C)n3C)cc2c(Cl)c1CN1CCC(C(F)(F)F)CC1 | > 400 µM | < 4 µM | inhibition [9]: 101%
COc1nc2ccc(C(O)(c3cnc(C)n3C)C3CCOCC3)cc2c(Cl)c1CN1CCC(C(F)(F)F)CC1 (stereo not given) | > 400 µM | 283 µM (≈ 160 µg/mL) | –
